Measured values published in patent US7348427B2, “Antipathogenic benzamide compounds” (Genesoft Pharmaceuticals, Inc., priority 2001, dated 2008).

Key:
[1] = system: Staphylococcus aureus (ATCC 27660, a methicillin resistant strain (MRSA)); assay: MIC, NCCLS broth microdilution assay; type: cell-based; conditions: F = S. aureus ATCC 27660
Excerpt: (§1) In vitro biological activity data were collected for a variety of microorganisms, including Bacillus cereus (ATCC 11778), Staphylococcus aureus (ATCC 27660, a methicillin resistant strain (MRSA); ATCC 13709, a methicillin sensitive strain (MSSA)); Streptococcus pneumoniae (ATCC 51422, a penicillin resistant strain (PRSP)), Enterococcus faecium (ATCC 51559, a vancomycin resistant strain (VRE)), and Staphylococcus epidermidis (ATCC 12228). Additionally, antifungal activity data were collected for Candida albicans (ATCC 38247).
(§2) Compounds according to this invention were screened for their in vitro activities against selected species of bacteria and fungi. The minimal inhibition concentration (MIC) of these compounds was determined using the National Committee for Clinical Laboratory Standards (NCCLS) broth microdilution assay in microtiter plates, as set forth in: (1) the guidelines of the National. Committee for Clinical Laboratory Standards (NCCLS) Document M7-A4 (NCCLS, 1997); (2) the guidelines of the National Committee for Clinical Laboratory Standards (NCCLS) Document M11-A4 (NCCLS, 1997); and (3) the guidelines and reference method of the National Committee for Clinical Laboratory Standards (NCCLS) Document M27-T (NCCLS, 1995). For antifungal assays, the method recommended in Murray, P R., 1995 Manual of Clinical Microbiology (ASM Press, Washington, D.C.), was employed.

[2] = system: Staphylococcus aureus (ATCC 13709, a methicillin sensitive strain (MSSA)); assay: MIC, NCCLS broth microdilution assay; type: cell-based; conditions: E = S. aureus ATCC 13709
Excerpt: as §1, §2

[3] = system: Bacillus cereus (ATCC 11778); assay: MIC, NCCLS broth microdilution assay; type: cell-based; conditions: A = B. cereus ATCC 11778
Excerpt: as §1, §2

[4] = system: Candida albicans (ATCC 38247); assay: Antifungal MIC assay; type: cell-based; conditions: B = C. albicans ATCC 38247
Excerpt: as §1, §2

[5] = system: E. faecalis ATCC 29212; assay: MIC, NCCLS broth microdilution assay; type: cell-based, Enterococcus faecalis; conditions: C = E. faecalis ATCC 29212
Description: as §2

[6] = system: S. pneumoniae ATCC 49619; assay: MIC, NCCLS broth microdilution assay; type: cell-based, Streptococcus pneumoniae; conditions: H = S. pneumoniae ATCC 49619
Description: as §2

CCN(CC)CCNC(=O)c1cc(NC(=O)c2cc(NC(=O)c3ccc(Cl)cc3F)c[nH]2)cn1C [Compound A-20]
Minimum Inhibitory Concentration (MIC) [1]: ++ (++ = 4 < MIC < 12)
Minimum Inhibitory Concentration (MIC) [2]: ++ (++ = 4 < MIC < 12)
Minimum Inhibitory Concentration (MIC) [3]: + (+ = 12 ≦ MIC ≦ 32)
Minimum Inhibitory Concentration (MIC) [4]: >32 µg/mL
Minimum Inhibitory Concentration (MIC) [5]: +++ (+++ = MIC ≦ 4)
Minimum Inhibitory Concentration (MIC) [6]: +++ (+++ = MIC ≦ 4)

Cn1cc(NC(=O)c2cc(NC(=O)c3ccc(Cl)cc3F)c[nH]2)cc1C(=O)NCCN1CCC(O)CC1 [Compound A-23]
Minimum Inhibitory Concentration (MIC) [1]: + (+ = 12 ≦ MIC ≦ 32)
Minimum Inhibitory Concentration (MIC) [2]: + (+ = 12 ≦ MIC ≦ 32)
Minimum Inhibitory Concentration (MIC) [3]: + (+ = 12 ≦ MIC ≦ 32)
Minimum Inhibitory Concentration (MIC) [4]: >32 µg/mL
Minimum Inhibitory Concentration (MIC) [5]: + (+ = 12 ≦ MIC ≦ 32)
Minimum Inhibitory Concentration (MIC) [6]: +++ (+++ = MIC ≦ 4)

Cn1cc(NC(=O)c2cc(NC(=O)c3cc(NC(=O)c4ccc(Cl)cc4F)c[nH]3)cn2C)cc1C(=O)NCCc1cccnc1 [Compound A-24]
Minimum Inhibitory Concentration (MIC) [1]: +++ (+++ = MIC ≦ 4)
Minimum Inhibitory Concentration (MIC) [2]: >32 µg/mL
Minimum Inhibitory Concentration (MIC) [3]: +++ (+++ = MIC ≦ 4)
Minimum Inhibitory Concentration (MIC) [4]: >32 µg/mL
Minimum Inhibitory Concentration (MIC) [5]: ++ (++ = 4 < MIC < 12)
Minimum Inhibitory Concentration (MIC) [6]: +++ (+++ = MIC ≦ 4)

Cn1cc(NC(=O)c2cc(NC(=O)c3ccc(Cl)cc3F)c[nH]2)cc1C(=O)NCCc1ccncc1 [Compound A-25]
Minimum Inhibitory Concentration (MIC) [1]: +++ (+++ = MIC ≦ 4)
Minimum Inhibitory Concentration (MIC) [2]: +++ (+++ = MIC ≦ 4)
Minimum Inhibitory Concentration (MIC) [3]: ++ (++ = 4 < MIC < 12)
Minimum Inhibitory Concentration (MIC) [4]: >32 µg/mL
Minimum Inhibitory Concentration (MIC) [5]: +++ (+++ = MIC ≦ 4)
Minimum Inhibitory Concentration (MIC) [6]: +++ (+++ = MIC ≦ 4)

Cn1cc(NC(=O)c2cc(NC(=O)c3cc(NC(=O)c4cc(NC(=O)c5ccc(Cl)cc5F)c[nH]4)cn3C)cn2C)cc1C(=O)NCCN1CCOCC1 [Compound A-27]
Minimum Inhibitory Concentration (MIC) [1]: + (+ = 12 ≦ MIC ≦ 32)
Minimum Inhibitory Concentration (MIC) [2]: + (+ = 12 ≦ MIC ≦ 32)
Minimum Inhibitory Concentration (MIC) [3]: +++ (+++ = MIC ≦ 4)
Minimum Inhibitory Concentration (MIC) [4]: >32 µg/mL
Minimum Inhibitory Concentration (MIC) [5]: ++ (++ = 4 < MIC < 12)
Minimum Inhibitory Concentration (MIC) [6]: +++ (+++ = MIC ≦ 4)

Cn1cc(NC(=O)c2cc(NC(=O)c3cc(NC(=O)c4ccc(Cl)cc4F)c[nH]3)cn2C)cc1C(=O)NCCN1CCSC1 [Compound A-29]
Minimum Inhibitory Concentration (MIC) [1]: ++ (++ = 4 < MIC < 12)
Minimum Inhibitory Concentration (MIC) [2]: +++ (+++ = MIC ≦ 4)
Minimum Inhibitory Concentration (MIC) [3]: +++ (+++ = MIC ≦ 4)
Minimum Inhibitory Concentration (MIC) [4]: >32 µg/mL
Minimum Inhibitory Concentration (MIC) [5]: + (+ = 12 ≦ MIC ≦ 32)
Minimum Inhibitory Concentration (MIC) [6]: +++ (+++ = MIC ≦ 4)

Cn1cc(NC(=O)c2cc(NC(=O)c3cc(NC(=O)c4ccc(Cl)c(Cl)c4)c[nH]3)cn2C)cc1C(=O)NCCN1CCOCC1 [Compound A-30]
Minimum Inhibitory Concentration (MIC) [1]: +++ (+++ = MIC ≦ 4)
Minimum Inhibitory Concentration (MIC) [2]: +++ (+++ = MIC ≦ 4)
Minimum Inhibitory Concentration (MIC) [3]: +++ (+++ = MIC ≦ 4)
Minimum Inhibitory Concentration (MIC) [4]: >32 µg/mL
Minimum Inhibitory Concentration (MIC) [5]: +++ (+++ = MIC ≦ 4)
Minimum Inhibitory Concentration (MIC) [6]: +++ (+++ = MIC ≦ 4)

Cn1cc(NC(=O)c2cc(NC(=O)c3cc(NC(=O)c4ccc(F)cc4F)cn3C)cn2C)cc1C(=O)NCCCN1CCCCC1 [Compound B-4]
Minimum Inhibitory Concentration (MIC) [1]: ++ (++ = 4 < MIC < 12)
Minimum Inhibitory Concentration (MIC) [2]: ++ (++ = 4 < MIC < 12)
Minimum Inhibitory Concentration (MIC) [3]: ++ (++ = 4 < MIC < 12)
Minimum Inhibitory Concentration (MIC) [4]: >32 µg/mL
Minimum Inhibitory Concentration (MIC) [5]: ++ (++ = 4 < MIC < 12)
Minimum Inhibitory Concentration (MIC) [6]: ++ (++ = 4 < MIC < 12)

Cn1cc(NC(=O)c2cc(NC(=O)c3cc(NC(=O)c4ccc(F)cc4F)cn3C)cn2C)cc1C(=O)NCCN1CCCC1 [Compound B-5]
Minimum Inhibitory Concentration (MIC) [1]: +++ (+++ = MIC ≦ 4)
Minimum Inhibitory Concentration (MIC) [2]: +++ (+++ = MIC ≦ 4)
Minimum Inhibitory Concentration (MIC) [3]: +++ (+++ = MIC ≦ 4)
Minimum Inhibitory Concentration (MIC) [4]: >32 µg/mL
Minimum Inhibitory Concentration (MIC) [5]: +++ (+++ = MIC ≦ 4)
Minimum Inhibitory Concentration (MIC) [6]: +++ (+++ = MIC ≦ 4)

Cn1cc(NC(=O)c2cc(NC(=O)c3cc(NC(=O)c4ccc(F)cc4F)cn3C)cn2C)cc1C(=O)NCCCNC1CCCCC1 [Compound B-7]
Minimum Inhibitory Concentration (MIC) [1]: +++ (+++ = MIC ≦ 4)
Minimum Inhibitory Concentration (MIC) [2]: +++ (+++ = MIC ≦ 4)
Minimum Inhibitory Concentration (MIC) [3]: +++ (+++ = MIC ≦ 4)
Minimum Inhibitory Concentration (MIC) [4]: >32 µg/mL
Minimum Inhibitory Concentration (MIC) [5]: +++ (+++ = MIC ≦ 4)
Minimum Inhibitory Concentration (MIC) [6]: +++ (+++ = MIC ≦ 4)

Cn1cc(NC(=O)c2cc(NC(=O)c3cc(NC(=O)c4ccc(F)cc4F)cn3C)cn2C)cc1C(=O)NCCCN1CCOCC1 [Compound B-8]
Minimum Inhibitory Concentration (MIC) [1]: ++ (++ = 4 < MIC < 12)
Minimum Inhibitory Concentration (MIC) [2]: ++ (++ = 4 < MIC < 12)
Minimum Inhibitory Concentration (MIC) [3]: ++ (++ = 4 < MIC < 12)
Minimum Inhibitory Concentration (MIC) [4]: >32 µg/mL
Minimum Inhibitory Concentration (MIC) [5]: ++ (++ = 4 < MIC < 12)
Minimum Inhibitory Concentration (MIC) [6]: ++ (++ = 4 < MIC < 12)

Cn1cc(NC(=O)c2ccc(F)cc2F)cc1C(=O)Nc1cc(C(=O)Nc2cc(C(=O)OCCN3CCCCC3)n(C)c2)n(C)c1 [Compound B-9]
Minimum Inhibitory Concentration (MIC) [1]: +++ (+++ = MIC ≦ 4)
Minimum Inhibitory Concentration (MIC) [2]: +++ (+++ = MIC ≦ 4)
Minimum Inhibitory Concentration (MIC) [3]: +++ (+++ = MIC ≦ 4)
Minimum Inhibitory Concentration (MIC) [4]: >32 µg/mL
Minimum Inhibitory Concentration (MIC) [5]: +++ (+++ = MIC ≦ 4)
Minimum Inhibitory Concentration (MIC) [6]: +++ (+++ = MIC ≦ 4)

Cn1cc(NC(=O)c2ccc(F)cc2F)cc1C(=O)Nc1cc(C(=O)Nc2cc(C(=O)OCCN3CCOCC3)n(C)c2)n(C)c1 [Compound B-10]
Minimum Inhibitory Concentration (MIC) [1]: + (+ = 12 ≦ MIC ≦ 32)
Minimum Inhibitory Concentration (MIC) [2]: + (+ = 12 ≦ MIC ≦ 32)
Minimum Inhibitory Concentration (MIC) [3]: +++ (+++ = MIC ≦ 4)
Minimum Inhibitory Concentration (MIC) [4]: >32 µg/mL
Minimum Inhibitory Concentration (MIC) [5]: +++ (+++ = MIC ≦ 4)
Minimum Inhibitory Concentration (MIC) [6]: +++ (+++ = MIC ≦ 4)

C[C@@H]1CN(CCNC(=O)c2cc(NC(=O)c3cc(NC(=O)c4ccc(F)cc4F)cn3C)cn2C)C[C@H](C)O1 [Compound B-12]
Minimum Inhibitory Concentration (MIC) [1]: +++ (+++ = MIC ≦ 4)
Minimum Inhibitory Concentration (MIC) [2]: ++ (++ = 4 < MIC < 12)
Minimum Inhibitory Concentration (MIC) [3]: +++ (+++ = MIC ≦ 4)
Minimum Inhibitory Concentration (MIC) [4]: >32 µg/mL
Minimum Inhibitory Concentration (MIC) [5]: +++ (+++ = MIC ≦ 4)
Minimum Inhibitory Concentration (MIC) [6]: +++ (+++ = MIC ≦ 4)

CCN(CC)CCNC(=O)c1cc(NC(=O)c2cc(NC(=O)c3ccc(F)cc3F)cn2C)cn1C [Compound B-13]
Minimum Inhibitory Concentration (MIC) [1]: + (+ = 12 ≦ MIC ≦ 32)
Minimum Inhibitory Concentration (MIC) [2]: ++ (++ = 4 < MIC < 12)
Minimum Inhibitory Concentration (MIC) [3]: + (+ = 12 ≦ MIC ≦ 32)
Minimum Inhibitory Concentration (MIC) [4]: >32 µg/mL
Minimum Inhibitory Concentration (MIC) [5]: ++ (++ = 4 < MIC < 12)
Minimum Inhibitory Concentration (MIC) [6]: +++ (+++ = MIC ≦ 4)

Cn1cc(NC(=O)c2cc(NC(=O)c3ccc(F)cc3F)cn2C)cc1C(=O)NCCN1CCCCC1 [Compound B-14]
Minimum Inhibitory Concentration (MIC) [1]: +++ (+++ = MIC ≦ 4)
Minimum Inhibitory Concentration (MIC) [2]: +++ (+++ = MIC ≦ 4)
Minimum Inhibitory Concentration (MIC) [3]: ++ (++ = 4 < MIC < 12)
Minimum Inhibitory Concentration (MIC) [4]: >32 µg/mL
Minimum Inhibitory Concentration (MIC) [5]: +++ (+++ = MIC ≦ 4)
Minimum Inhibitory Concentration (MIC) [6]: +++ (+++ = MIC ≦ 4)

CN(C)CC(C)(C)CNC(=O)c1cc(NC(=O)c2cc(NC(=O)c3ccc(F)cc3F)cn2C)cn1C [Compound B-15]
Minimum Inhibitory Concentration (MIC) [1]: >32 µg/mL
Minimum Inhibitory Concentration (MIC) [2]: >32 µg/mL
Minimum Inhibitory Concentration (MIC) [3]: >32 µg/mL
Minimum Inhibitory Concentration (MIC) [4]: >32 µg/mL
Minimum Inhibitory Concentration (MIC) [5]: >32 µg/mL
Minimum Inhibitory Concentration (MIC) [6]: + (+ = 12 ≦ MIC ≦ 32)

Cn1cc(NC(=O)c2cc(NC(=O)c3ccc(F)cc3F)cn2C)cc1C(=O)NCCN1CCCC1 [Compound B-16]
Minimum Inhibitory Concentration (MIC) [1]: ++ (++ = 4 < MIC < 12)
Minimum Inhibitory Concentration (MIC) [2]: ++ (++ = 4 < MIC < 12)
Minimum Inhibitory Concentration (MIC) [3]: ++ (++ = 4 < MIC < 12)
Minimum Inhibitory Concentration (MIC) [4]: >32 µg/mL
Minimum Inhibitory Concentration (MIC) [5]: +++ (+++ = MIC ≦ 4)
Minimum Inhibitory Concentration (MIC) [6]: +++ (+++ = MIC ≦ 4)

Cn1cc(NC(=O)c2cc(NC(=O)c3cc(NC(=O)c4ccc(F)cc4F)cn3C)cn2C)cc1C(=O)NCCc1cccc[n+]1C [Compound B-17]
Minimum Inhibitory Concentration (MIC) [1]: ++ (++ = 4 < MIC < 12)
Minimum Inhibitory Concentration (MIC) [2]: ++ (++ = 4 < MIC < 12)
Minimum Inhibitory Concentration (MIC) [3]: +++ (+++ = MIC ≦ 4)
Minimum Inhibitory Concentration (MIC) [4]: >32 µg/mL
Minimum Inhibitory Concentration (MIC) [5]: + (+ = 12 ≦ MIC ≦ 32)
Minimum Inhibitory Concentration (MIC) [6]: ++ (++ = 4 < MIC < 12)
